Holding throughout (format): cell-based
Assay [1] has as its system P. vulgaris HX-19. Put plainly: in vitro antibacterial activity, agar plate dilution method (MIC). As to conditions: for MIC: Proteus vulgaris, read-out: Minimum Inhibitory Concentration (MIC). As for the experimental part: (§1) One platinum loopfull of each test microorganism incubated overnight in Mueller Hinton broth, was inoculated to Mueller Hinton agar (inoculum size: 10^6 CFU/ml). Such culture media containing various antibiotics in various concentrations were prepared. After incubation at 37° C. for 16 hours, the minimum inhibitory concentrations (MIC: μg/ml) were measured.

Assay [2] deals with K. pneumoniae PCI-602. The description is as above. As to conditions: for MIC: Klebsiella pneumoniae, read-out: Minimum Inhibitory Concentration (MIC). As for the experimental part: as §1
The test system of assay [3] is E. cloacae 963. The description is as above. The conditions noted are these: for MIC: read-out: Minimum Inhibitory Concentration (MIC). As for the experimental part: as §1
Assay [4] relates to E. coli NIHJ JC2. The description is as above. The conditions noted are these: for MIC: Escherichia coli, read-out: Minimum Inhibitory Concentration (MIC). As for the experimental part:
as §1

Assay [5] relates to S. marcescens IAM 1184. The assay is described as above. The conditions noted are these: for MIC: Serratia marcescens, read-out: Minimum Inhibitory Concentration (MIC). As for the experimental part:
as §1

The test system of assay [6] is S. aureus 209P NIHJ-JCl. The assay is described as above. As to conditions: for MIC: Staphylococcus aureus, read-out: Minimum Inhibitory Concentration (MIC). As for the experimental part: as §1
Assay [7] deals with S. aureus 109P NIHJ-JCl. Put plainly: in vitro antibacterial activity, agar plate dilution method (MIC), second part of Table 1. As to conditions: Staphylococcus aureus, 109PNIHJJCL, read-out: Minimum Inhibitory Concentration (MIC). As for the experimental part: as §1
Where [8] appears, read: HX19, P. vulgaris HX-19, 10^6 CFU/ml, MH agar, 37° C., 16 hours.
The mark [9] stands for this setting: PCI602, K. pneumoniae PCI-602, 10^6 CFU/ml, MH agar, 37° C., 16 hours.
[10] abbreviates: Enterobacter cloacae, E. cloacae 963, 10^6 CFU/ml, MH agar, 37° C., 16 hours.
The mark [11] stands for this setting: NIHJJC2, E. coli NIHJ JC2, 10^6 CFU/ml, MH agar, 37° C., 16 hours.
Where [12] appears, read: IAM1184, S. marcescens IAM 1184, 10^6 CFU/ml, MH agar, 37° C., 16 hours.
[13] abbreviates: S. aureus 209P NIHJ-JCl, 10^6 CFU/ml, MH agar, 37° C., 16 hours.
[14] abbreviates: S. aureus 109P NIHJ-JCl, 10^6 CFU/ml, MH agar, 37° C., 16 hours.
The mark [15] stands for this setting: Enterobacter cloacae, 963, 16 h.

Each structure is given as a SMILES string. Values after ≈ are worked out from the molar mass of the structure shown. Like-named read-outs stand apart in the source and are kept apart here. A value given as a limit tells only on which side of the number the result lay.

Regarding `CO/N=C(\C(=O)N[C@@H]1C(=O)N2C(C(=O)O)=C(OCc3ccc(C(N)=O)cc3)CS[C@H]12)c1csc(N)n1` [Example 14, Sodium 7β-[2-(2-aminothiazol-4-yl)-(Z)-2-methoxyiminoacetamido]-3-(4-carbamoylbenzVloxy)-3-cephem-4-carboxylate], the MIC in assay [1] (setting [8]) is 0.05 µg/mL; in assay [2] (setting [9]) it was under 0.006 µg/mL; in assay [3] (setting [10]) it was 0.2 µg/mL; in assay [4] (setting [11]) it was 0.39 µg/mL; in assay [5] (setting [12]) it was 0.1 µg/mL; in assay [6] (setting [13]) it was 3.12 µg/mL.
Take `C[n+]1ccc(COC2=C(C(=O)[O-])N3C(=O)[C@@H](NC(=O)/C(=N\OC(C(=O)O)c4ccc(O)c(O)c4)c4csc(N)n4)[C@H]3SC2)cc1` (single isomer, unassigned) [Example 38, Sodium 7β-[2-(2-aminothiazol-4-yl)-(Z)-2-(α-carboxylato-3,4-dihydroxybenzyloxyimino)acetamido]-3-(1-methyl-4-pyridiniomethoxy)-3-cephem-4-carboxylate (diastereisomer A)]: the MIC in assay [7] (setting [14]) amounted to 0.039 µg/mL; in assay [1] (setting [8]), 0.39 µg/mL; in assay [2] (setting [9]), 0.025 µg/mL; in assay [3] (setting [10]), 0.039 µg/mL; in assay [4] (setting [11]), 0.039 µg/mL; in assay [5] (setting [12]), 0.1 µg/mL.
Turning to `C[n+]1ccc(COC2=C(C(=O)[O-])N3C(=O)[C@@H](NC(=O)/C(=N\OC(C)(C)C(=O)O)c4csc(N)n4)[C@H]3SC2)cc1` [Example 36, Sodium 7β-[2-(2-aminothiazol-4-yl)-(Z)-2-(1-carboxylato-1-methylethoxyimino)acetamido]-3-(1-methy-4-pyridiniomethoxy)-3-cephem-4-carboxylate], the MIC is 6.25 µg/mL in assay [7] (16 h); 0.05 µg/mL in assay [1] (setting [8]); 0.0125 µg/mL in assay [2] (setting [9]); 0.05 µg/mL in assay [3] (setting [10]); 0.05 µg/mL in assay [4] (setting [11]); 0.025 µg/mL in assay [5] (setting [12]).
On to `CCO/N=C(\C(=O)N[C@@H]1C(=O)N2C(C(=O)[O-])=C(OCc3cc[n+](CC(=O)O)cc3)CS[C@H]12)c1csc(N)n1` [Example 51, Sodium 7β-[2-(2-aminothiazol-4-yl)-(Z)-2-ethoxyiminoacetamido]-3-(1-carboxylatomethyl-4-pyridiniomethoxy)-3-cephem-4-carboxylate], for which the MIC was determined as 3.12 µg/mL in assay [7] (16 h); 0.05 µg/mL in assay [1] (setting [8]); 0.025 µg/mL in assay [2] (setting [9]); 0.1 µg/mL in assay [3] (setting [10]); 0.2 µg/mL in assay [4] (setting [11]); 0.1 µg/mL in assay [5] (setting [12]).
`NC(=O)c1ccc(COC2=C(C(=O)[O-])N3C(=O)[C@@H](NC(=O)/C(=N\OCC(=O)[O-])c4csc(N)n4)[C@H]3SC2)cc1.[Na+].[Na+]` [Example 22, Disodium 7β-[2-(2-aminothiazol-4-yl)-(Z)-2-carboxylatomethoxyiminoacetamido]-3-(4-carbamoylbenzyloxy)-3-cephem-4-carboxylate]: the MIC in assay [1] (HX19, 16 h) was determined as 0.025 µg/mL; in assay [2] (PCI602, 16 h), 0.025 µg/mL; in assay [3] (setting [15]) it was 0.1 µg/mL; in assay [4] (NIHJJC2, 16 h), 0.05 µg/mL; in assay [5] (IAM1184, 16 h), 0.0125 µg/mL; in assay [6] (209P, 16 h), 50 µg/mL.
For `CO/N=C(\C(=O)N[C@@H]1C(=O)N2C(C(=O)[O-])=C(OCc3nc(C)cs3)CS[C@H]12)c1csc(N)n1.[Na+]` [Example 16, Sodium 7β-[2-(2-aminothiazol-4-yl)-(Z)-2-methoxyiminoacetamido]-3-(4-methylthiazol-2-ylmethoxy)-3-cephem-4-carboxylate], the MIC in assay [1] (HX19, 16 h) was under 0.006 µg/mL; in assay [2] (PCI602, 16 h), under 0.006 µg/mL; in assay [3] (setting [15]), 0.2 µg/mL; in assay [4] (NIHJJC2, 16 h), 0.2 µg/mL; in assay [5] (IAM1184, 16 h), 0.2 µg/mL; in assay [6] (209P, 16 h), 3.12 µg/mL.
For the compound `C[n+]1ccc(COC2=C(C(=O)[O-])N3C(=O)[C@@H](NC(=O)/C(=N\OCc4ccccc4CC(=O)O)c4csc(N)n4)[C@H]3SC2)cc1` [Example 40, Sodium 7β-[2-(2-aminothiazol-4-yl)-(Z)-2-(2-carboxylatomethylbenzyloxyimino)acetamido]-3-(1-methyl-4-pyridiniomethoxy)-3-cephem-4-carboxylate], the MIC in assay [7] (setting [14]) came to 1.56 µg/mL; in assay [1] (setting [8]) it was 0.0125 µg/mL; in assay [2] (setting [9]) it was 0.05 µg/mL; in assay [3] (setting [10]), 0.39 µg/mL; in assay [4] (setting [11]), 0.39 µg/mL; in assay [5] (setting [12]) it was 0.1 µg/mL.
As for `C=C(O/N=C(\C(=O)N[C@@H]1C(=O)N2C(C(=O)[O-])=C(OCc3cc[n+](C)cc3)CS[C@H]12)c1csc(N)n1)C(=O)O` [Example 37, Sodium 7β-[2-(2-aminothiazol-4-yl)-(Z)-2-(1-carboxylatovinyloxyimino)acetamido]-3-(1-methyl-4-pyridiniomethoxy)-3-cephem-4-carboxylate], the MIC is 1.56 µg/mL in assay [7] (16 h); 0.025 µg/mL in assay [1] (setting [8]); under 0.006 µg/mL in assay [2] (PCI602, 16 h); 0.025 µg/mL in assay [3] (setting [10]); 0.025 µg/mL in assay [4] (NIHJJC2, 16 h); under 0.006 µg/mL in assay [5] (setting [12]).
Take `CO/N=C(\C(=O)N[C@@H]1C(=O)N2C(C(=O)[O-])=C(c3csnn3)CS[C@H]12)c1csc(N)n1.[Na+]` [Example 18, Sodium 7δ-[2-(2-aminothiazol-4-yl)-(Z)-2-methoxyiminoacetamido]-3-(1,2,3-thiadiazol-4-yl)-3-cephem-4-carboxylate]: the “Minimum Inhibitory Concentration (MIC)” value in assay [1] (P. vulgaris HX-19, 10^6 CFU/ml, MH agar, 37° C., 16 hours) is 0.100 µg/mL; in assay [2] (K. pneumoniae PCI-602, 10^6 CFU/ml, MH agar, 37° C., 16 hours) it was 0.0125 µg/mL; in assay [3] (E. cloacae 963, 10^6 CFU/ml, MH agar, 37° C., 16 hours), 0.390 µg/mL; in assay [4] (E. coli NIHJ JC2, 10^6 CFU/ml, MH agar, 37° C., 16 hours) it was 0.390 µg/mL; in assay [5] (S. marcescens IAM 1184, 10^6 CFU/ml, MH agar, 37° C., 16 hours) it was 0.390 µg/mL; in assay [6] (setting [13]) it was 3.12 µg/mL.
For `CC(C)(O/N=C(\C(=O)N[C@@H]1C(=O)N2C(C(=O)O)=C(OCc3ccncc3)CS[C@H]12)c1csc(N)n1)C(=O)O` [Example 4, Disodium 7β-[2-(2-aminothiaxol-4-yl)-(Z)-2-(1-carboxylato-1-methylethoxyimino)acetamido]-3-(4-pyridylmethoxy)-3-cephem-4-carboxylate], the MIC in assay [1] (setting [8]) was determined as 0.0125 µg/mL; in assay [2] (setting [9]), 0.05 µg/mL; in assay [3] (setting [10]) it was 0.039 µg/mL; in assay [4] (setting [11]), 0.39 µg/mL; in assay [5] (IAM1184, 16 h) it was 0.025 µg/mL; in assay [6] (209P, 16 h), 12.5 µg/mL.
On to `CO/N=C(\C(=O)N[C@@H]1C(=O)N2C(C(=O)[O-])=C(OCc3cc[n+](C)cc3)CS[C@H]12)c1csc(N)n1` [Example 32, 7β-[2-(2-aminothiazol-4-yl)-(Z)-2-methoxyiminoacetamido]-3-(1-methyl-4-pyridiniomethoxy)-3-cephem-4-carboxylate], for which the MIC is 0.039 µg/mL (≈ 0.0773 µM) in assay [7] (setting [14]); 0.2 µg/mL (≈ 0.396 µM) in assay [1] (setting [8]); 0.025 µg/mL (≈ 0.0495 µM) in assay [2] (setting [9]); 0.1 µg/mL (≈ 0.198 µM) in assay [3] (setting [10]); 0.1 µg/mL (≈ 0.198 µM) in assay [4] (setting [11]); 0.05 µg/mL (≈ 0.0991 µM) in assay [5] (setting [12]).
For `CO/N=C(\C(=O)N[C@@H]1C(=O)N2C(C(=O)[O-])=C(OCc3cccc[n+]3C)CS[C@H]12)c1csc(N)n1` [Example 44, 7β-[2-(2-aminothiazol-4-yl)-(Z)-2-methoxyiminoacetamido]-3-(1-methyl-2-pyridiniomethoxy)-3-cephem-4-carboxylate], the MIC in assay [7] (setting [14]) is 0.2 µg/mL (≈ 0.396 µM); in assay [1] (setting [8]), 0.2 µg/mL (≈ 0.396 µM); in assay [2] (setting [9]) it was 0.05 µg/mL (≈ 0.0991 µM); in assay [3] (setting [10]) it was 0.2 µg/mL (≈ 0.396 µM); in assay [4] (setting [11]) it was 0.39 µg/mL (≈ 0.773 µM); in assay [5] (setting [12]), 0.2 µg/mL (≈ 0.396 µM).
`CO/N=C(\C(=O)N[C@@H]1C(=O)N2C(C(=O)[O-])=C(OCc3ccncc3)CS[C@H]12)c1csc(N)n1.[Na+]` [Example 1, Sodium 7β-[2-(2-aminothiazol-4-yl)-(Z)-2-methoxyiminoacetamido]-3-(4-pyridylmethoxy)-3-cephem-4-carboxylate]: the MIC in assay [1] (HX19, 16 h) is 0.05 µg/mL; in assay [2] (PCI602, 16 h) it was under 0.006 µg/mL; in assay [3] (setting [15]) it was 0.2 µg/mL; in assay [4] (NIHJJC2, 16 h), 0.2 µg/mL; in assay [5] (IAM1184, 16 h), 0.1 µg/mL; in assay [6] (209P, 16 h) it was 0.78 µg/mL.

Values taken from patent publication US4918070A, “Cephalosporin derivatives and antibacterial agents” (Banyu Pharmaceutical Co., Ltd., priority 1987, dated 1990).
